According to EP4644396A1 (Visionpharma (Nantong) Co., Ltd, priority 2022, dated 2024):

Molecular target: T1, human TLR8 (Homo sapiens, UniProt Q9NR97)
T1 construct: expressed in transfected cells
T1 sequence (Q9NR97 27-1041): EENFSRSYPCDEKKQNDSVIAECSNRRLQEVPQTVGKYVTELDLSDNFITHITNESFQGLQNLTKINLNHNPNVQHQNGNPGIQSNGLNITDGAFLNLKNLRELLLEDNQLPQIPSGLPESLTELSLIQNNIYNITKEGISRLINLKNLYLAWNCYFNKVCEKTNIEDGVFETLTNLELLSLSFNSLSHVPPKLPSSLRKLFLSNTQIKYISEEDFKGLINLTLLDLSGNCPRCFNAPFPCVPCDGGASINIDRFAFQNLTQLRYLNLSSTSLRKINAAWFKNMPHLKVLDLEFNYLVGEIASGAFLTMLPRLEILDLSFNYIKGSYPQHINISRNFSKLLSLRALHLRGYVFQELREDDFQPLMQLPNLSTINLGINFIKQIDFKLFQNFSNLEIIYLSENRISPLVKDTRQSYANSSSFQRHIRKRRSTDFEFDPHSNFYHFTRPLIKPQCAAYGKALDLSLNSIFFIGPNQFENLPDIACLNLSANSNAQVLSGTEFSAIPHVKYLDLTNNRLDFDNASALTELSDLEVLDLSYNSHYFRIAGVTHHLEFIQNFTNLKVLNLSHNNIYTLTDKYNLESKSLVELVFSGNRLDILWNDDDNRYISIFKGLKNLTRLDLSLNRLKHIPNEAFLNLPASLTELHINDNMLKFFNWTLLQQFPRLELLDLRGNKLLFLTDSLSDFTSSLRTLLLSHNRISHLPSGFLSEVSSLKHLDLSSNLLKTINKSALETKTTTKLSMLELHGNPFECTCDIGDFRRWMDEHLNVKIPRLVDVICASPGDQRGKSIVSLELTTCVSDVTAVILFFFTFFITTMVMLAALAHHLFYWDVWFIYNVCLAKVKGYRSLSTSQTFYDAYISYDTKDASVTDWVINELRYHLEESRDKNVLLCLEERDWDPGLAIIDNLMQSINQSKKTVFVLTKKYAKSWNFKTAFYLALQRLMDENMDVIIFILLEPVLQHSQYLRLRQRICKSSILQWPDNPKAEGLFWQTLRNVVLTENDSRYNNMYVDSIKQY
Experiment: HEK-Blue hTLR8 SEAP reporter gene inhibition assay
Format: cell-based
Conditions: HEK-Blue hTLR8 IC50 (µM)
Experimental: HEK-Blue cells with stable expression of human TLR7 or TLR8 were used in the evaluation of inhibitory activity of compounds in the present invention against TLR7 or TLR8, by using its ability to induce the SEAP reporting gene under the control of the fusion of IFN-β minimum promoters into five NF-κB and ap-1 binding sites, as follows: hTLR7 HEK-Blue cells (Invivogen, 80, 000 cells per well) or hTLR8 HEK-Blue cells (60, 000 cells per well) were added to a 96-well cell culture plate. A solution of the testing compounds were added to each well, with the final concentration of tested compounds in the medium ranged from 0.001 to 36 µM and the culture was incubated for 15 minutes. M5049 was used as positive controls in the testing.
Then a TLR7 ligand (Gardiquimod, purchased from MedChemExpress, with final concentration of ligand in cell culture medium kept at 10 µM) or a TLR8 ligand (purchased from MedChemExpress with final concentration in cell culture media at 10 µM) and the culture was incubated for 20 hours. According to the manufacturer's instructions, a HEK-Blue reagent Quanti-blue (Invivogen) was used to detect the SEAP levels in cell cultures. The half […] concentration or IC50 was calculated by using GraphPad Prism. […] Table 1: Activities of examples in this invention to hTLR7/8 in HEK-Blue Cells

With `C[C@@H]1CN(c2ccc(C#N)n3ncc(F)c23)Cc2c3c(nn21)CN(Cc1ccn[nH]1)CC3` [Example I-29] as the molecule, how does the IC50 read?
Its IC50 is under 0.1 µM.

Same assay, conditions: hTLR8 HEK-Blue cells, TLR8 ligand 10 µM, 20 hours, SEAP by Quanti-blue; class symbols; read-out: HEK-Blue hTLR8 IC50

“4-((4R,9S)-4,9-dimethyl-8-((2R,6R)-6-methylmorpholine-2-carbonyl)-3,4,7,8,9,10-hexahydropyrido[3',4':3,4]pyrazolo[1,5-a]pyrazin-2(1H)-yl)-3-fluoropyrazolo[1,5-a]pyridine-7-carbonitrile [Example I-122]” was tested. Which IC50 did it give?
Its IC50 is under 0.1 µM.

For “4-((4R,9S)-8-(L-prolyl)-4,9-dimethyl-3,4,7,8,9,10-hexahydropyrido[3',4':3,4]pyrazolo [1,5-a]pyrazin-2(1H)-yl)-3-fluoropyrazolo[1,5-a]pyridine-7-carbonitrile [Example I-114]”, which IC50 is on record?
Its IC50 is under 0.1 µM.

For `CCC1CN(c2ccc(C#N)n3ncc(F)c23)Cc2c3c(nn21)CNCC3` (stereo not drawn) [Example I-17, 4-(4-Ethyl-3,4,7,8,9,10-hexahydropyrido[3',4':3,4]pyrazolo[1,5-a]pyrazin-2(1H)-yl)-3-fluoropyrazolo[1,5-a]pyridine-7-carbonitrile], which IC50 is on record?
The IC50 was over 0.1 µM.

Which IC50 does the source give for `C[C@@H]1CN(c2ccc(C#N)n3ncc(F)c23)Cc2c3c(nn21)CN(CCO)CC3` [Example I-19, (R)-3-Fluoro-4-(8-(2-hydroxyethyl)-4-methyl-3,4,7,8,9,10-hexahydropyrido[3',4':3,4]pyrazolo[1,5-a]pyrazin-2(1H)-yl)pyrazolo[1,5-a]pyridine-7-carbonitrile] here?
Its IC50 is over 0.1 µM.

`C[C@@H]1CN(c2ccc(C#N)n3ncc(F)c23)Cc2c3c(nn21)CC(N)CC3` (stereo partly drawn) [Example I-20, 4-((4R)-8-amino-4-methyl-3,4,7,8,9,10-hexahydropyrazino[1,2-b]indazol-2(1H)-yl)-3-fluoropyrazolo[1,5-a]pyridine-7-carbonitrile] was tested. Which IC50 did it give?
The IC50 was under 0.1 µM.

With `C[C@@H]1CN(c2ccc(C#N)n3ncc(F)c23)Cc2c3c(nn21)CC(N1CCOCC1)CC3` (stereo partly drawn) [Example I-31, 3-Fluoro-4-((4R)-4-methyl-8-morpholino-3,4,7,8,9,10-hexahydropyrazino[1,2-b]indazol-2(1H)-yl)pyrazolo[1,5-a]pyridine-7-carbonitrile] as the molecule, how does the IC50 read?
Its IC50 is under 0.1 µM.

For `C[C@@H]1CN(c2ccc(C#N)n3ncc(F)c23)Cc2c3c(nn21)CN(C1CCNCC1O)C(=O)C3` (stereo partly drawn) [Example I-32, 3-Fluoro-4-((4R)-8-(3-hydroxypiperidin-4-yl)-4-methyl-9-oxo-3,4,7,8,9,10-hexahydropyrido[3',4':3,4]pyrazolo[1,5-a]pyrazin-2(1H)-yl)pyrazolo[1,5-a]pyridine-7-carbonitrile], which IC50 is on record?
Its IC50 is under 0.1 µM.

How did the IC50 turn out when `C[C@@H]1CN(c2ccc(C#N)n3ncc(F)c23)Cc2c3c(nn21)C(CO)CNC3` (stereo partly drawn) [Example I-35, 3-Fluoro-4-((7R)-4-(hydroxymethyl)-7-methyl-1,3,4,7,8,10-hexahydropyrido[4',3':3,4]pyrazolo[1,5-a]pyrazin-9(2H)-yl)pyrazolo[1,5-a]pyridine-7-carbonitrile] was run?
The IC50 was under 0.1 µM.

With `C[C@@H]1CN(c2ccc(C#N)n3ncc(F)c23)Cc2c3c(nn21)CC(CO)NC3` (stereo partly drawn) [Example I-36, 3-Fluoro-4-((7R)-3-(hydroxymethyl)-7-methyl-1,3,4,7,8,10-hexahydropyrido[4',3':3,4]pyrazolo[1,5-a]pyrazin-9(2H)-yl)pyrazolo[1,5-a]pyridine-7-carbonitrile] as the molecule, how does the IC50 read?
The IC50 was under 0.1 µM.

`C[C@@H]1CN(c2ccc(C#N)n3ncc(F)c23)Cc2c3c(nn21)CC(N)C(O)C3` (stereo partly drawn) [Example I-37, 4-((4R)-8-amino-9-hydroxy-4-methyl-3,4,7,8,9,10-hexahydropyrazino [1,2-b]indazol-2(1H)-yl)-3-fluoropyrazolo[1,5-a]pyridine-7-carbonitrile] was tested. Which IC50 did it give?
Its IC50 is under 0.1 µM.

With `C[C@@H]1CN(c2ccc(C#N)n3ncc(F)c23)Cc2c3c(nn21)CNCC3O` (stereo partly drawn) [Example I-38, 3-Fluoro-4-((4R)-10-hydroxy-4-methyl-3,4,7,8,9,10-hexahydropyrido[3',4':3,4]pyrazolo[1,5-a]pyrazin-2(1H)-yl)pyrazolo[1,5-a]pyridine-7-carbonitrile] as the molecule, how does the IC50 read?
Its IC50 is over 0.1 µM.

With `C[C@@H]1CN(c2ccc(C#N)n3ncc(F)c23)Cc2c3c(nn21)CC1CCC3N1` (stereo partly drawn) [Example I-44, 3-Fluoro-4-((4R)-4-methyl-1,3,4,7,8,9,10,11-octahydro-2H-8,11-epiminocyclohepta [3,4]pyrazolo[1,5-a]pyrazin-2-yl)pyrazolo[1,5-a]pyridine-7-carbonitrile] as the molecule, how does the IC50 read?
The IC50 was under 0.1 µM.

For `C[C@@H]1CN(c2ccc(C#N)n3ncc(F)c23)Cc2c3c(nn21)CCNC3CO` (stereo partly drawn) [Example I-46, 3-fluoro-4-((7R)-1-(hydroxymethyl)-7-methyl-1,3,4,7,8,10-hexahydropyrido[4',3':3,4]pyrazolo[1,5-a]pyrazin-9(2H)-yl)pyrazolo[1,5-a]pyridine-7-carbonitrile], which IC50 is on record?
The IC50 was under 0.1 µM.

For `C[C@@H]1CN(c2ccc(C#N)n3ncc(F)c23)Cc2c3c(nn21)CC(CN1CCOCC1)NC3` (stereo partly drawn) [Example I-47, 3-Fluoro-4-((7R)-7-methyl-3-(morpholinomethyl)-1,3,4,7,8,10-hexahydropyrido [4',3':3,4]pyrazolo[1,5-a]pyrazin-9(2H)-yl)pyrazolo[1,5-a]pyridine-7-carbonitrile], which IC50 is on record?
The IC50 was over 0.1 µM.

Which IC50 does the source give for `CC(C)CC1NCCc2c1nn1c2CN(c2ccc(C#N)n3ncc(F)c23)C[C@H]1C` (stereo partly drawn) [Example I-69, 3-Fluoro-4-((4R)-7-isobutyl-4-methyl-3,4,7,8,9,10-hexahydropyrido[3',4':3,4]pyrazolo [1,5-a]pyrazin-2(1H)-yl)pyrazolo[1,5-a]pyridine-7-carbonitrile] here?
Its IC50 is under 0.1 µM.

Which IC50 does the source give for `CC(C)C1NCCc2c1nn1c2CN(c2ccc(C#N)n3ncc(F)c23)C[C@H]1C` (stereo partly drawn) [Example I-70, 3-Fluoro-4-((4R)-7-isopropyl-4-methyl-3,4,7,8,9,10-hexahydropyrido[3',4':3,4]pyrazolo[1,5-a]pyrazin-2(1H)-yl)pyrazolo[1,5-a]pyridine-7-carbonitrile] here?
The IC50 was under 0.1 µM.

Which IC50 does the source give for `C[C@@H]1CN(c2ccc(C#N)n3ncc(F)c23)Cc2c3c(nn21)CC(C)(N)CC3` (stereo partly drawn) [Example I-71, 4-((4R)-8-amino-4,8-dimethyl-3,4,7,8,9,10-hexahydropyrazino[1,2-b]indazol-2(1H)-yl)-3-fluoropyrazolo[1,5-a]pyridine-7-carbonitrile] here?
Its IC50 is under 0.1 µM.

Which IC50 does the source give for `C[C@@H]1CN(c2ccc(C#N)n3ncc(F)c23)Cc2c3c(nn21)CC(C)(C)NC3` [Example I-78, (R)-3-Fluoro-4-(3,3,7-trimethyl-1,3,4,7,8,10-hexahydropyrido[4',3':3,4]pyrazolo [1,5-a]pyrazin-9(2H)-yl)pyrazolo[1,5-a]pyridine-7-carbonitrile] here?
The IC50 was under 0.1 µM.

`COC[C@@H]1CCCN1CC(=O)N1Cc2nn3c(c2C[C@@H]1C)CN(c1ccc(C#N)n2ncc(F)c12)C[C@H]3C` [Example I-109, 3-Fluoro-4-((4R,9S)-8-(2-((S)-2-(methoxymethyl)pyrrolidin-1-yl)acetyl)-4,9-dimethyl-3,4,7,8,9,10-hexahydropyrido[3',4':3,4]pyrazolo[1,5-a]pyrazin-2(1H)-yl)pyrazolo[1,5-a]pyridine-7-carbonitrile] was tested. Which IC50 did it give?
Its IC50 is under 0.1 µM.

With `C[C@@H]1CN(c2ccc(C#N)n3ncc(F)c23)Cc2c3c(nn21)CN(CC(=O)N1C[C@H](C)N[C@@H](C)C1)[C@@H](C)C3` [Example I-145, 4-((4R,9S)-8-(2-((3S,5S)-3,5-dimethylpiperazin-1-yl)-2-oxoethyl)-4,9-dimethyl-3,4,7,8,9,10-hexahydropyrido[3',4':3,4]pyrazolo[1,5-a]pyrazin-2(1H)-yl)-3-fluoropyrazolo[1,5-a]pyridine-7-carbonitrile] as the molecule, how does the IC50 read?
The IC50 was under 0.1 µM.
